Experimental findings from patent US20240368120A1 (Terns Pharmaceuticals, Inc., priority 2023, published 2024) are described below.

Series [1] deals with T1, human GLP-1R receptor (Homo sapiens, UniProt P43220).
T1 construct: expressed in transfected cells
The series can be described thus: GLP-1R low expression cell assay (cAMP TR-FRET, CHO-K1_hGLP-1Rlow_clone10 cells). It is filed as cell-based. Particulars: for Emax: maximum activation relative to control GLP-1 peptide agonist; for EC50: cAMP TR-FRET, 30 min at 25° C. The method, boiled down: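 CHO-K1 cells stably expressing low surface human GLP-1R (clone10), 1,000 cells/well, exposed to 10-point 3-fold compound dilutions for 30 min at 25 °C. cAMP measured by TR-FRET (Eu-cAMP tracer/ULight-anti-cAMP, 15 min). EC50 from Hill fit of duplicate percent activation relative to a parallel GLP-1 control agonist.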

A short description of series [2]: Rat pharmacokinetics, oral dosing. It is filed as in vivo, Sprague-Dawley rats. Conditions: male, Sprague-Dawley, oral dosing at 3 mg/kg, plasma; for half-life: read-out: Rat T1/2.

The term Emax denotes the maximal effect, on the per cent scale that the assay sets. As usually defined, the AUC is the area under the concentration-time curve, a measure of exposure. A low value points to less exposure. What is called Cmax is the peak of the concentration-time curve. The bioavailability is the share of a dose that reaches the circulation, judged against a reference dose that is usually intravenous. As a reminder, the EC50 is the concentration at which the effect is half-maximal.

Molecules are shown by their SMILES.

T1 sequence (P43220 24-463): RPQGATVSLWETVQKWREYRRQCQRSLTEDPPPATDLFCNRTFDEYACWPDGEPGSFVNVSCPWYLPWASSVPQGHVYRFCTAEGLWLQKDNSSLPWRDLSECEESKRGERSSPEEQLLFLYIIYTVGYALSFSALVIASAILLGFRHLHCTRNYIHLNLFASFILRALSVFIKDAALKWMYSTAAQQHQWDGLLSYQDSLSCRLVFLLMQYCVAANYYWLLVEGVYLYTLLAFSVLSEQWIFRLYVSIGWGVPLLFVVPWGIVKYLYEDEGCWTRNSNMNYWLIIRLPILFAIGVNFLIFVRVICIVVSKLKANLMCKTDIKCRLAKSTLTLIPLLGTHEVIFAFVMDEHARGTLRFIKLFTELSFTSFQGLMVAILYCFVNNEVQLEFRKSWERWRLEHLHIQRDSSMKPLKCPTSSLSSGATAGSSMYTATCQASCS

In series [1], `COCCOc1cc(C(=O)O)cc2c1nc(CN1CCC(c3cccc4c3O[C@@](C)(c3ccc(Cl)cn3)O4)CC1)n2C` [Compound 309, (S)-2-((4-(2-(5-Chloropyridin-2-yl)-2-methylbenzo[d][1,3]dioxol-4-yl)piperidin-1-yl)methyl)-4-(2-methoxyethoxy)-1-methyl-1H-benzo[d]imidazole-6-carboxylic acid] showed an Emax greater than 85%. In addition, in series [2], the AUC is less than 500 ng·h/mL, the maximum concentration (Cmax) was less than 500 ng/mL, the half-life was no less than 2.5 h and the bioavailability was less than 25%.

In series [1], `Cn1c(N(C)[C@H]2CC[C@H](c3cccc(OCc4ccc(C#N)cc4F)n3)CC2)nc2c(OC(F)F)cc(C(=O)O)cc21` [Compound 133, 2-(((1r,4r)-4-(6-((4-Cyano-2-fluorobenzyl)oxy)pyridin-2-yl)cyclohexyl)(methyl)amino)-4-(difluoromethoxy)-1-methyl-1H-benzo[d]imidazole-6-carboxylic acid] came in with an EC50 of less than 10 nM and an Emax greater than 85%. In series [2], the AUC was in the range of 500 to 2500 ng·h/mL, the maximum concentration (Cmax) lay in the range of 500 to 1000 ng/mL, the half-life lay within 1.5 to 2.5 h and the bioavailability lay in the range of 25 to 50%.

In series [1], `CC(C)Oc1cc(C(=O)O)cc2c1nc(CN1CCC(c3cccc(OCc4ccc(C#N)cc4F)n3)CC1)n2Cc1cncs1` [Compound 73, 2-((4-(6-((4-Cyano-2-fluorobenzyl)oxy)pyridin-2-yl)piperidin-1-yl)methyl)-4-isopropoxy-1-(thiazol-5-ylmethyl)-1H-benzo[d]imidazole-6-carboxylic acid] returned an EC50 of less than 10 nM and an Emax greater than 85%. For the same molecule, in series [2], the AUC was less than 500 ng·h/mL, the Cmax was less than 500 ng/mL, the half-life is less than 1.5 h and the bioavailability was less than 25%.

In series [1], `[2H]C([2H])(C)Oc1cc(C(=O)O)cc2c1nc(CN1CCC(c3cccc(OCc4ccc(C#N)cc4F)n3)CC1)n2C` [Compound 295, 2-((4-(6-((4-Cyano-2-fluorobenzyl)oxy)pyridin-2-yl)piperidin-1-yl)methyl)-4-(ethoxy-1,1-d2)-1-methyl-1H-benzo[d]imidazole-6-carboxylic acid] yielded an EC50 of less than 10 nM and an Emax greater than 85%. Moreover, in series [2], the AUC lay in the range of 500 to 2500 ng·h/mL, the Cmax is 500 to 1000 ng/mL, the half-life was in the range of 1.5 to 2.5 h and the bioavailability lay within 25 to 50%.

Consider `C[C@]1(c2ccc(Cl)cn2)Oc2cccc(C3CCN(Cc4nc5c(O)cc(C(=O)O)cc5n4Cc4cncs4)CC3)c2O1` [Compound 90, (S)-2-((4-(2-(5-chloropyridin-2-yl)-2-methylbenzo[d][1,3]dioxol-4-yl)piperidin-1-yl)methyl)-4-hydroxy-1-(thiazol-5-ylmethyl)-1H-benzo[d]imidazole-6-carboxylic acid], for which, in series [1], the concentration for a half-maximal effect (EC50) is less than 10 nM and the Emax was greater than 85%. Besides, in series [2], the AUC was less than 500 ng·h/mL, the maximum concentration (Cmax) was less than 500 ng/mL, the half-life was in the range of 1.5 to 2.5 h and the bioavailability was less than 25%.

In series [1], `COc1cc(C(=O)O)cc2c1nc(CN1CCC(c3cccc(OCc4ccc(C(F)F)cc4F)n3)CC1)n2C` [Compound 305, 2-((4-(6-((4-(Difluoromethyl)-2-fluorobenzyl)oxy)pyridin-2-yl)piperidin-1-yl)methyl)-4-methoxy-1-methyl-1H-benzo[d]imidazole-6-carboxylic acid] displayed an EC50 of 10 to 100 nM and an Emax greater than 85%. In addition, in series [2], the AUC fell in the range of 2500 to 10000 ng·h/mL, the peak concentration (Cmax) was 2000 to 5000 ng/mL, the half-life was in the range of 1.5 to 2.5 h and the bioavailability lay within 50 to 85%.

Take `COc1cc(C(F)(F)F)ccc1COc1cccc(C2CCN(Cc3nc4c(OC(F)F)cc(C(=O)O)cc4n3C)CC2)n1` [Compound 154, 4-(Difluoromethoxy)-2-((4-(6-((2-methoxy-4-(trifluoromethyl)benzyl)oxy)pyridin-2-yl)piperidin-1-yl)methyl)-1-methyl-1H-benzo[d]imidazole-6-carboxylic acid]: in series [1], the EC50 is less than 10 nM and the maximum response (Emax) is greater than 85%. In addition, in series [2], the Cmax was greater than 5000 ng/mL, the half-life lay within 1.5 to 2.5 h and the bioavailability fell in the range of 50 to 85%.
